Biological target: T1, estrogen receptor α (ERα) (Homo sapiens, UniProt P03372)
T1 construct: gene ESR1; ERα LBD (human recombinant ERα)
T1 sequence (P03372 311-547 limits assumed): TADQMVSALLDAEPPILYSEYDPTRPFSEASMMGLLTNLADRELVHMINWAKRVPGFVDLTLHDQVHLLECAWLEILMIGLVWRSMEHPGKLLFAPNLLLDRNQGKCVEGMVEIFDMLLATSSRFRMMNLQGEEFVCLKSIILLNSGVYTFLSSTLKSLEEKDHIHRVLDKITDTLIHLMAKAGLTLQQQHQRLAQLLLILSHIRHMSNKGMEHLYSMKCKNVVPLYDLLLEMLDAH
Test: competitive radioligand binding assay with [3H][…]β-estradiol (nitrocellulose filtration)

IC50: 1.22 nM
SMILES: Cc1cc(C=C(c2ccc(O)cc2)c2ccc(O)cc2)c2c(C)ccc(C(C)C)cc1-2 [Az-01, 4,4′-(2-(5-Isopropyl-3,8-dimethylazulen-1-yl)ethene-1,1-diyl)diphenol]

From PMC8835499, “Challenging Approach to the Development of Novel Estrogen Receptor Modulators Based on the Chemical Properties of Guaiazulene” (International Journal of Molecular Sciences, 2022)
